In patent publication US20090143279A1 (priority 2007, published 2009):
Where two headings read alike, the source gives them in different places.

Columns and labels:
[1] = test system: mitochondrial membrane potential; type: cell-based, mouse; conditions: for ΔΨm (composite Z-score): normalized score vs mock-treated (DMSO) wells
reactive oxygen species = type: cell-based, mouse; conditions: for ROS (composite Z-score): normalized score vs mock-treated (DMSO) wells
OXPHOS gene expression = type: cell-based, mouse; conditions: for GE-HTS (composite Z-score): normalized score vs mock-treated (DMSO) wells
nuOXPHOS transcripts = type: cell-based, mouse; conditions: for nucOX (composite Z-score): normalized score vs mock-treated (DMSO) wells
mtOXPHOS transcripts = type: cell-based, mouse; conditions: for mitoOX (composite Z-score): normalized score vs mock-treated (DMSO) wells
cytochrome c = type: cell-based, mouse; conditions: for cyt c (composite Z-score): normalized score vs mock-treated (DMSO) wells
C2C12 myotubes = conditions: for Viability (composite Z-score): normalized score vs mock-treated (DMSO) wells
[2] = test system: cellular dehydrogenase activity; conditions: for MTT (composite Z-score): normalized score vs mock-treated (DMSO) wells
[3] = composite Z-score vs DMSO wells, Conc 20 μM
[4] = normalized composite Z-score vs mock-treated (DMSO) wells, Conc 20 μM
[5] = composite Z-score vs DMSO, Conc 20 μM
[6] = 20 μM, composite Z-score vs DMSO
[7] = composite Z-score vs mock-treated (DMSO) wells, Conc 20 μM
[8] = composite Z-score vs mock-treated (DMSO) wells, concentration of each compound in μM
[9] = composite Z-score vs DMSO, Conc 8 μM
[10] = Table 4, C2C12 myotubes, 48 h, composite Z-score
[11] = Table 7, C2C12 myotubes, 48 h, composite Z-score

Sequence of cytochrome c (P62897 whole entry): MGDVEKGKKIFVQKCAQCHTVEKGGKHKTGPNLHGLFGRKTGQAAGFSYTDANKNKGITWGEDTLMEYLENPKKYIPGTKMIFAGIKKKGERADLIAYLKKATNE

O=C(O)c1cc(O)c2c(c1)C(=O)c1cc(O)cc(O)c1C2=O [emodic acid]
ΔΨm (composite Z-score) ([1]; Conc 20 μM): −0.966
ROS (composite Z-score) (reactive oxygen species; Conc 20 μM): 1.403
GE-HTS (composite Z-score) (OXPHOS gene expression; Conc 20 μM): −1.336
nucOX (composite Z-score) (nuOXPHOS transcripts; Conc 20 μM): −1.210
mitoOX (composite Z-score) (mtOXPHOS transcripts; Conc 20 μM): −1.286
cyt c (composite Z-score) (cytochrome c; Conc 20 μM): 0.505
Viability (composite Z-score) (C2C12 myotubes; Conc 20 μM): 0.262
MTT (composite Z-score) ([2]; Conc 20 μM): −0.976

CCOc1ccc(NC(C)=O)cc1 [phenacetin]
ΔΨm [1, 3]: −0.255
ROS (reactive oxygen species; [3]): 1.491
GE-HTS (OXPHOS gene expression; [3]): 0.811
nucOX (nuOXPHOS transcripts; [3]): 0.833
mitoOX (mtOXPHOS transcripts; [3]): 0.564
cyt c (cytochrome c): −0.611
cyt c (cytochrome c; [3]): 0.005
Viability (C2C12 myotubes; [3]): 0.665
MTT [2, 3]: 0.760

CC1(C)C(=O)C=C[C@]2(C)[C@H]3CC[C@@]4(C)[C@H](c5ccoc5)OC(=O)[C@H]5O[C@]54[C@]3(C)C=C[C@@H]12 [7-desacetoxy-6,7-dehydrogedunin]
ΔΨm [1, 4]: −1.799
ROS (reactive oxygen species; [4]): −3.492
GE-HTS (OXPHOS gene expression; [4]): −1.430
nucOX (nuOXPHOS transcripts; [4]): −0.695
mitoOX (mtOXPHOS transcripts; [4]): −2.631
cyt c (cytochrome c; [4]): 0.198
Viability (C2C12 myotubes; [4]): −0.973
MTT [2, 4]: −1.891

CC[C@@H](C)C(=O)O[C@H]1[C@H](O)[C@H]2[C@@H](CN3C[C@@H](C)CC[C@H]3[C@@]2(C)O)[C@@H]2C[C@]34O[C@]5(O)[C@@H](OC(=O)[C@](C)(O)[C@@H](C)O)CC[C@@]3(C)[C@@H]5[C@@H](OC(C)=O)[C@@H](OC(C)=O)[C@H]4[C@@]21O (stereo in doubt) [protoveratrine B]
ΔΨm [1, 5]: 0.942
ROS (reactive oxygen species; [5]): 0.244
GE-HTS (OXPHOS gene expression; [5]): 0.018
nucOX (nuOXPHOS transcripts; [5]): 0.058
mitoOX (mtOXPHOS transcripts; [5]): −0.096
cyt c (cytochrome c; [5]): −1.085
Viability (C2C12 myotubes; [5]): 0.708
MTT [2, 5]: 0.904

CCCCC(CC)CNC(=N)NC(=N)NCCCCCCNC(=N)NC(=N)NCC(CC)CCCC (stereo not drawn) [alexidine]
ΔΨm [1]: −3.726
ΔΨm [1, 6]: −1.139
ROS (reactive oxygen species): −4.270
ROS (reactive oxygen species; [6]): −0.298
GE-HTS (OXPHOS gene expression): −1.696
GE-HTS (OXPHOS gene expression; [6]): −0.288
nucOX (nuOXPHOS transcripts): −1.387
nucOX (nuOXPHOS transcripts; [6]): −0.289
mitoOX (mtOXPHOS transcripts): −2.011
mitoOX (mtOXPHOS transcripts; [6]): −0.150
cyt c (cytochrome c): −3.201
cyt c (cytochrome c; [6]): −3.981
Viability (C2C12 myotubes): −4.805
Viability (C2C12 myotubes; [6]): −2.974
MTT [2]: −5.432
MTT [2, 6]: −2.693

COc1cc2ccc(=O)oc2c(OC)c1OC [fraxidin methyl ether]
ΔΨm [1, 7]: −0.713
ROS (reactive oxygen species; [7]): 0.276
GE-HTS (OXPHOS gene expression; [7]): −0.124
nucOX (nuOXPHOS transcripts; [7]): −0.104
mitoOX (mtOXPHOS transcripts; [7]): −0.103
cyt c (cytochrome c; [7]): −0.098
Viability (C2C12 myotubes; [7]): −1.325
MTT [2, 7]: −2.013

beta-sitosterol
ΔΨm [1, 5]: −0.679
ROS (reactive oxygen species; [5]): 0.049
GE-HTS (OXPHOS gene expression; [5]): 0.098
nucOX (nuOXPHOS transcripts; [5]): 0.046
mitoOX (mtOXPHOS transcripts; [5]): 0.218
cyt c (cytochrome c; [5]): 0.061
Viability (C2C12 myotubes; [5]): −0.768
MTT [2, 5]: −1.974

avocatin A
ΔΨm [1, 8]: −0.057
ROS (reactive oxygen species; [8]): 0.404
GE-HTS (OXPHOS gene expression; [8]): −1.145
nucOX (nuOXPHOS transcripts; [8]): −1.066
mitoOX (mtOXPHOS transcripts; [8]): −1.140
cyt c (cytochrome c; [8]): 0.849
Viability (C2C12 myotubes; [8]): 0.133
MTT [2, 8]: −0.249

CC(C)=CCC1=C(O)C(=O)c2ccccc2C1=O [lapachol]
ΔΨm [1, 3]: 0.035
ROS (reactive oxygen species; [3]): −0.544
GE-HTS (OXPHOS gene expression; [3]): −1.316
nucOX (nuOXPHOS transcripts; [3]): −1.308
mitoOX (mtOXPHOS transcripts; [3]): −1.077
cyt c (cytochrome c; [3]): 0.325
Viability (C2C12 myotubes; [3]): −0.409
MTT [2, 3]: −1.211

COc1ccc(-c2cc(=O)c3c(O)cc(O[C@H]4O[C@H](CO[C@@H]5O[C@@H](C)[C@H](O)[C@@H](O)[C@H]5O)[C@@H](O)[C@H](O)[C@H]4O)cc3o2)cc1 [buddleoflavonoloside]
ΔΨm (composite Z-score) ([1]; Conc 20 μM): 0.050
ROS (composite Z-score) (reactive oxygen species; Conc 20 μM): 0.265
GE-HTS (composite Z-score) (OXPHOS gene expression; Conc 20 μM): 0.073
nucOX (composite Z-score) (nuOXPHOS transcripts; Conc 20 μM): 0.114
mitoOX (composite Z-score) (mtOXPHOS transcripts; Conc 20 μM): 0.017
cyt c (composite Z-score) (cytochrome c; Conc 20 μM): 0.736
Viability (composite Z-score) (C2C12 myotubes; Conc 20 μM): 0.169
MTT (composite Z-score) ([2]; Conc 20 μM): 0.006

CCCCN(CCCC)CCC(O)c1cc2c(Cl)cc(Cl)cc2c2cc(C(F)(F)F)ccc12 (stereo not drawn) [halofantrine]
ΔΨm [1, 9]: −0.668
ROS (reactive oxygen species; [9]): 0.012
GE-HTS (OXPHOS gene expression; [9]): −0.508
nucOX (nuOXPHOS transcripts; [9]): −0.239
mitoOX (mtOXPHOS transcripts; [9]): −0.969
cyt c (cytochrome c; [9]): −0.236
Viability (C2C12 myotubes; [9]): 0.132
MTT [2, 9]: −0.174

Nc1ccccc1C(=O)CC(N)C(=O)O (stereo not drawn) [kynurenine]
ΔΨm [1, 4]: −0.058
ROS (reactive oxygen species; [4]): 1.941
GE-HTS (OXPHOS gene expression; [4]): −0.039
nucOX (nuOXPHOS transcripts; [4]): −0.088
mitoOX (mtOXPHOS transcripts; [4]): 0.069
cyt c (cytochrome c; [4]): 0.162
Viability (C2C12 myotubes; [4]): −0.110
MTT [2, 4]: −0.912

OC[C@H]1O[C@@H](O[C@H]2[C@H](O)[C@@H](O)[C@H](O)O[C@@H]2CO)[C@H](O)[C@@H](O)[C@@H]1O [cellobiose (D[+])]
ΔΨm [1, 4]: −0.571
ROS (reactive oxygen species; [4]): −0.298
GE-HTS (OXPHOS gene expression; [4]): −0.127
nucOX (nuOXPHOS transcripts; [4]): 0.051
mitoOX (mtOXPHOS transcripts; [4]): −0.466
cyt c (cytochrome c; [4]): 0.380
Viability (C2C12 myotubes; [4]): 0.390
MTT [2, 4]: 0.411

CC(=O)O[C@@H]1C[C@H]2C(C)(C)C(=O)C=C[C@]2(C)[C@H]2CC[C@]3(C)C(=CC(=O)O[C@H]3c3ccoc3)[C@@]21C [deoxygedunin]
ΔΨm [1, 5]: 1.327
ROS (reactive oxygen species; [5]): −0.640
GE-HTS (OXPHOS gene expression; [5]): −1.229
nucOX (nuOXPHOS transcripts; [5]): −1.298
mitoOX (mtOXPHOS transcripts; [5]): −0.808
cyt c (cytochrome c; [5]): 1.083
Viability (C2C12 myotubes; [5]): −0.326
MTT [2, 5]: −0.532

Oc1ccc2c(c1)OC[C@H]1c3cc4c(cc3O[C@@H]21)OCO4 [maackiain]
ΔΨm (composite Z-score) ([1]; Conc 20 μM): 0.391
ROS (composite Z-score) (reactive oxygen species; Conc 20 μM): 0.879
GE-HTS (composite Z-score) (OXPHOS gene expression; Conc 20 μM): −0.561
nucOX (composite Z-score) (nuOXPHOS transcripts; Conc 20 μM): −0.285
mitoOX (composite Z-score) (mtOXPHOS transcripts; Conc 20 μM): −1.049
cyt c (composite Z-score) (cytochrome c; Conc 20 μM): 0.969
Viability (composite Z-score) (C2C12 myotubes; Conc 20 μM): −1.052
MTT (composite Z-score) ([2]; Conc 20 μM): −0.578

O=c1cc(-c2cc(O)c(O)c(O)c2)oc2cc(O)cc(O)c12 [hieracin, reference compound]
ΔΨm (composite Z-score) ([1]; Conc 20 μM): −1.902
ΔΨm ([1]; Table 4, C2C12 myotubes, 48 h, JC-1, composite Z-score): −1.902
ROS (composite Z-score) (reactive oxygen species; Conc 20 μM): −0.329
ROS (reactive oxygen species; [10]): −0.329
GE-HTS (composite Z-score) (OXPHOS gene expression; Conc 20 μM): −0.648
nucOX (composite Z-score) (nuOXPHOS transcripts; Conc 20 μM): −0.421
mitoOX (composite Z-score) (mtOXPHOS transcripts; Conc 20 μM): −1.009
cyt c (composite Z-score) (cytochrome c; Conc 20 μM): 0.057
Viability (composite Z-score) (C2C12 myotubes; Conc 20 μM): 1.425
Viability (C2C12 myotubes; [10]): 1.425
MTT (composite Z-score) ([2]; Conc 20 μM): −0.557
MTT [2, 10]: −0.557

CCOc1nc2cccc(C(=O)OC(C)OC(=O)OC3CCCCC3)c2n1Cc1ccc(-c2ccccc2-c2nn[nH]n2)cc1 (stereo not drawn) [candesartan cilextil]
ΔΨm [1, 5]: −0.743
ROS (reactive oxygen species; [5]): 1.855
GE-HTS (OXPHOS gene expression; [5]): −0.432
nucOX (nuOXPHOS transcripts; [5]): −0.259
mitoOX (mtOXPHOS transcripts; [5]): −0.658
cyt c (cytochrome c; [5]): 1.328
Viability (C2C12 myotubes; [5]): 1.842
MTT [2, 5]: −1.116

Cc1c(O)c(O)cc2c1CC=C1[C@@]2(C)CC[C@@]2(C)[C@@H]3C[C@](C)(C(=O)O)CC[C@]3(C)CC[C@]12C [Dihydrocelastrol, reference compound]
ΔΨm [1, 4]: −3.514
ROS (reactive oxygen species; [4]): −3.065
GE-HTS (OXPHOS gene expression; [4]): −0.295
nucOXPHOS Z (nuOXPHOS transcripts; [11]): 2.18
nucOX (nuOXPHOS transcripts; [4]): 2.183
mito-OXPHOS Z (mtOXPHOS transcripts; [11]): −5.22
mitoOX (mtOXPHOS transcripts; [4]): −5.217
cyt c (cytochrome c; [4]): −4.583
Viability (C2C12 myotubes; [4]): −4.120
MTT [2, 4]: −5.524
